Assay results as given in patent US8163909B2, “Substituted hydroxyethyl amine compounds as beta-secretase modulators and methods of use” (Amgen Inc., priority 2007, dated 2012).
Like-named read-outs stand apart in the source and are kept apart here.

How the values were obtained:
[1] = target: Beta Secretase enzyme (BACE) (Homo sapiens, UniProt P56817); test: In vitro enzymatic BACE FRET (fluorescence resonance energy transfer) assay; type: biochemical;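 further: fluorescence read after 1 h with 50 nM quenched peptide substrate spanning the BACE cleavage site, in pH 4.2 acetate buffer containing 10% DMSO and nonionic detergent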
[2] = system: Aβ40 in conditioned medium of cells stably expressing Amyloid Precursor Protein (APP); test: In vitro BACE cell-based assay (Aβ40 in conditioned medium, sandwich ELISA); settings: Homo sapiens;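 further: compounds added as a dilution series, secreted peptide quantified by europium time-resolved fluorescence readout, potency fitted from percent of control versus compound concentration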
[3] = target: CYP3A4 (CYP3A) (Homo sapiens, UniProt P08684); test: in vitro; settings: microsomes, pH 7.4;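 further: inhibition of CYP3A-mediated 1-hydroxymidazolam formation after 10 min incubation with NADPH, quantified by HPLC MS relative to metabolite produced without test compound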
[4] = Microsomal stability assay, rat liver microsomes;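 further: rat liver microsomes (0.25 mg/mL) with about 1 µM compound plus 1 mM NADPH, pH 7.4, 37 °C for 30 min, parent left measured by LC-MS/MS against 0 min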
[5] = Microsomal stability assay, human liver microsomes;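 further: pooled human liver microsomes at 0.25 mg/mL with 1 µM compound and NADPH at 37 °C, pH 7.4, for 30 min, unchanged parent quantified by LC-MS/MS against the 0 min sample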
[6] = target: CYP2D6 (Homo sapiens, UniProt P10635); test: CYP2D6 inhibition assay (bufuralol, pooled human liver microsomes)
[7] = BACE enzyme assay, read-out: BACE1 FRET assay
[8] = HEK293, HEK cells, read-out: HEK cell assay
[9] = 2D6 IC50 (uM), CYP enzyme inhibition
[10] = Table 2, read-out: BACE1 FRET assay
[11] = HEK293, Table 2, HEK cells, read-out: HEK cell assay
[12] = 2D6 IC50, CYP enzyme inhibition

Sequence of CYP2D6 (P10635 whole entry): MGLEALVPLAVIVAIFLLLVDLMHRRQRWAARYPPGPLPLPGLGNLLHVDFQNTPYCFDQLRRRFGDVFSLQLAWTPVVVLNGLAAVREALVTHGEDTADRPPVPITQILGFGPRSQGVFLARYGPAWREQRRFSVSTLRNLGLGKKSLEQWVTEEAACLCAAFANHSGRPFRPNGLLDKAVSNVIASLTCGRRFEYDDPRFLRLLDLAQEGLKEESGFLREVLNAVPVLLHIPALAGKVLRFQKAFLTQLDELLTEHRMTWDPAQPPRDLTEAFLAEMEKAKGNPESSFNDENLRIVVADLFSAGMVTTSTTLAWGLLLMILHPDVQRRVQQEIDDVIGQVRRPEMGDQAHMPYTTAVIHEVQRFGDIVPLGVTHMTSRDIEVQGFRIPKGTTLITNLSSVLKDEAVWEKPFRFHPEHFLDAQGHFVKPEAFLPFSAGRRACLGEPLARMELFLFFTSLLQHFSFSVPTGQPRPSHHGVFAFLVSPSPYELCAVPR
Sequence of Beta Secretase enzyme (BACE) (P56817 46-501): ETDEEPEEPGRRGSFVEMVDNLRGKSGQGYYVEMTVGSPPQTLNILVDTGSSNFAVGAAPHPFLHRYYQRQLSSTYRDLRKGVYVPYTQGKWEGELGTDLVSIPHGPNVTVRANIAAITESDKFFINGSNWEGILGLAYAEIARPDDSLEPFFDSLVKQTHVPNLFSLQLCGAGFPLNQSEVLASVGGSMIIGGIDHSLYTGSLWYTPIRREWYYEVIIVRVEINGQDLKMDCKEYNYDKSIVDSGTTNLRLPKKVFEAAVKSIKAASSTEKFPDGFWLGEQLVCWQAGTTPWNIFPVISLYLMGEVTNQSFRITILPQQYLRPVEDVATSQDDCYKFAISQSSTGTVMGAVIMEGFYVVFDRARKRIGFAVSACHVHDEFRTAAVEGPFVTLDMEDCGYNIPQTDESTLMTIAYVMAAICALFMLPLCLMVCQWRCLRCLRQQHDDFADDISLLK
Sequence of CYP3A4 (CYP3A) (P08684 2-503): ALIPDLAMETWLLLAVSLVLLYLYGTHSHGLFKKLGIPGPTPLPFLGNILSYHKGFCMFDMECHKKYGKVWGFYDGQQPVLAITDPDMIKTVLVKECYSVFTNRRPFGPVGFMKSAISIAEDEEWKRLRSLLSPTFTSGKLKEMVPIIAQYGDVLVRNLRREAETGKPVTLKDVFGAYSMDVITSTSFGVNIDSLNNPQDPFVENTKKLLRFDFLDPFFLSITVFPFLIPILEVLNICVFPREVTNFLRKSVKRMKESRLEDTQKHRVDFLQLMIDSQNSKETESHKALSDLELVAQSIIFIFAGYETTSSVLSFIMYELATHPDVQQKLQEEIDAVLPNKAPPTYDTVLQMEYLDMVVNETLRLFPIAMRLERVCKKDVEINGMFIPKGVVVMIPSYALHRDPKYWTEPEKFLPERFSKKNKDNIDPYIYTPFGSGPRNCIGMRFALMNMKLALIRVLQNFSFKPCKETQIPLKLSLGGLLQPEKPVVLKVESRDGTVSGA

| Compound | IC50 [3] [nM] | IC50 [1, 7] [µM] | IC50 [2, 8] [µM] | RLM ([4]; rat liver microsomal data) [µL/min/mg] | HLM ([5]; human liver microsomal data) [µL/min/mg] | IC50 [6, 9] [µM] | also measured |
| --- | --- | --- | --- | --- | --- | --- | --- |
| COCC(=O)N[C@@H](Cc1cc(F)cc(-c2nccs2)c1)[C@H](O)CN[C@H]1CC2(CCC2)Oc2ncc(CC(C)C)cc21 [Example 695, N-((1S,2R)-1-(3-fluoro-5-(1,3-thiazol-2-yl)benzyl)-2-hydroxy-3-(((4′S)-6′-(2-methylpropyl)-3′,4′-dihydrospiro[cyclobutane-1,2′-pyrano[2,3-b]pyridin]-4′-yl)amino)propyl)-2-methoxyacetamide] | 100 | – | – | – | – | – | IC50 ([1]; BACE enzyme assay IC50, read-out: BACE1 FRET assay): 0.004 µM; IC50 ([2]; HEK293, HEK cell-based assay IC50, read-out: HEK cell assay): 0.011 µM; RLM ([4]; rat liver microsomes): 64 µL/min/mg; HLM ([5]; human liver microsomes): 77 µL/min/mg; IC50 ([6]; 2D6 IC50 (uM), CYP2D6 inhibition): 0.5 µM |
| COCC(=O)N[C@@H](Cc1cccc(F)c1)[C@H](O)CN[C@H]1CC2(CCC2)Oc2c(Br)cc(CC(C)C)cc21 [compound 514] | 1500 | 0.003 | 0.128 | 560 | 682 | 6 | – |
| COCC(=O)N[C@@H](Cc1cc(F)cc(F)c1)[C@H](O)CN[C@H]1CC2(CCC2)Oc2c1cc(CC(C)(C)C)nc2-c1cnc[nH]1 [compound 508] | 100 | 0.024 | 0.005 | 43 | 17 | 1.2 | – |
| CC(=O)N[C@@H](Cc1cccc(-c2cccnc2)c1)[C@H](O)CN[C@H]1CC2(CCC2)Oc2ncc(CC(C)(C)C)cc21 [compound 623] | 160 | – | – | – | – | – | IC50 ([1]; read-out: BACE1 FRET assay (IC50)): 0.008 µM; IC50 ([2]; HEK293, HEK cells, read-out: HEK cell assay (IC50)): 0.006 µM; RLM ([4]; rat liver microsomes): 601 µL/min/mg; HLM ([5]; human liver microsomes): 829 µL/min/mg; IC50 ([6]; 2D6 IC50, CYP2D6 inhibition): 1.3 µM |
| COCC(=O)N[C@@H](Cc1ccc2c(c1)OCO2)[C@H]1CN([C@H]2CC3(CCC3)Oc3ncc([C@H](F)C(C)(C)C)cc32)C(=O)O1 [compound 446] | 200 | – | – | 106 | 150 | – | IC50 [1, 10]: 6.32 µM; IC50 [2, 11]: > 10 µM; IC50 [6, 12]: 1.2 µM |
| COCC(=O)N[C@@H](Cc1cc(F)cc(F)c1)[C@H](O)CN[C@H]1CC2(CCC2)Oc2c1cc(CC(C)(C)C)nc2Nc1cccnc1 [compound 568] | 200 | 0.025 | 0.019 | 304 | 214 | 9.3 | – |
| CO[C@H](C)C(=O)N[C@@H](Cc1cc(F)cc(-c2nccs2)c1)[C@H](O)CN[C@H]1CC2(CCC2)Oc2ccc(CC(C)C)cc21 [compound 770] | 300 | – | – | 201 | 145 | 0.5 | IC50 ([1]; BACE enzyme assay, IC50's in uM, read-out: BACE1 FRET assay): 0.01 µM; IC50 ([2]; HEK293, HEK cell-based assay, IC50's in uM, read-out: HEK cell assay): 0.052 µM |
| COCC(=O)N[C@@H](Cc1ccc(F)cc1)[C@H](O)CN[C@@H]1CC2(CCC2)Oc2c1cc(CC(C)(C)C)nc2C#N [compound 492] | 400 | 5.04 | 0.462 | 190 | 94 | 8.2 | – |
| COCC(=O)N[C@@H](Cc1cc(F)cc(F)c1)[C@H](O)CN[C@H]1CC2(CCC2)Oc2c(-c3cccnc3)cc(CC(C)(C)C)cc21 [compound 489] | 400 | 0.007 | 0.02 | 775 | 399 | 3.9 | – |
| CC(=O)N[C@@H](Cc1ccc2c(c1)OCO2)[C@H](O)CN[C@H]1CC2(CCC2)Oc2ncc(CC(F)(F)F)cc21 [compound 517] | 500 | 0.178 | 0.202 | 51 | 32 | 7.8 | – |
| COCC(=O)N[C@@H](Cc1cc(F)cc(F)c1)[C@H](O)CN[C@H]1CC2(CCC2)Oc2c1cc(CC(C)(C)C)cc2-n1ccnc1 [compound 475] | 50 | – | – | 128.5 | 26 | – | IC50 [1, 10]: 0.018 µM; IC50 [2, 11]: 0.008 µM; IC50 [6, 12]: 1.75 µM |
| COCC(=O)N[C@@H](Cc1ccc(F)cc1)[C@H](O)CN[C@H]1CC2(CCC2)Oc2ncc(C(F)(F)C(C)(C)C)cc21 [compound 569] | 700 | 0.165 | 0.992 | 423 | 238 | ≥ 27 | – |
| COCC(=O)N[C@@H](Cc1ccc(F)cc1)[C@H](O)CN[C@H]1CC2(CCC2)Oc2nc(C)c(CC(C)(C)C)cc21 [compound 468] | 500 | – | – | 662 | 736 | – | IC50 [1, 10]: 0.097 µM; IC50 [2, 11]: 0.108 µM; IC50 [6, 12]: 9.6 µM |
